The values below come from ChEMBL document CHEMBL1144773, “Neolignans, a coumarinolignan, lignan derivatives, and a chromene: anti-inflammatory constituents from Zanthoxylum avicennae” (J Nat Prod, 2008).

A value given as a limit tells only on which side of the number the result lay.

One assay in a line: Antiinflammatory activity in human neutrophils assessed as inhibition of formyl-L-methionyl-L-leucyl-L-phenylalanine/cytochalasin B-induced elastase release. In kind it is functional, cell-based. Particulars: Neutrophil.
Turning to `COc1cc([C@@H]2Oc3cc(/C=C/C=O)cc(O)c3O[C@H]2CO)cc(OC)c1OC`, the IC50 was above 50 µM.
Take `COc1cc(=O)n(C)c2ccccc12`: the IC50 is above 50 µM.
On the same count and under the same terms, the figure for `COc1cc2ccc(=O)oc2cc1O` [SCOPOLETIN] is above 50 µM; for `COc1cc(/C=C/C(=O)OC[C@H]2[C@@H](Cc3cc(OC)c(O)c(OC)c3)CO[C@@H]2c2cc(OC)c(O)c(OC)c2)ccc1O` it is above 50 µM; for `COc1cc(=O)[nH]c2c(OC)cccc12` [EDULITINE] it is above 50 µM.
As to `COc1cc([C@@H]2Oc3cc(/C=C/C=O)cc(OC)c3O[C@H]2CO)ccc1O`, the IC50 is above 50 µM.
Same read-out and setting: for `COc1cc([C@@H]2Oc3c(c(OC)cc4ccc(=O)oc34)O[C@H]2CO)cc(OC)c1O` [CLEOMISCOSIN D] the value was above 50 µM.
As to `CC1(C)C=Cc2cc(/C=C/C=O)ccc2O1`, the IC50 is above 50 µM.
On the same count and under the same terms, for `COc1c2c(cc3ccc(=O)oc13)C=CC(C)(C)O2` [LUVANGETIN] the value was above 50 µM; for `Cn1c2ccccc2c(=O)c2ccoc21` [ISODICTAMNINE], above 50 µM.
Still for that read-out and setting: for `COc1c2c(c3ccc(=O)oc3c1/C=C/C(C)(C)O)OC(C)(C)C=C2` [AVICENNOL] the value was 32 µM; for `COc1cc([C@@H]2OC[C@@H]3[C@H]2CO[C@H]3c2cc(OC)c(O)c(OC)c2)cc(OC)c1O`, above 50 µM.
Same read-out and setting: for `COc1cc(/C=C\C(=O)OC[C@H]2[C@@H](Cc3cc(OC)c(O)c(OC)c3)CO[C@@H]2c2cc(OC)c(O)c(OC)c2)ccc1O` the value was 28.9 µM.
Turning to `COc1cc2ccc(=O)oc2cc1OC` [SCOPARONE], the IC50 is above 50 µM.
Still for that read-out and setting: for `COc1cc([C@@H]2Oc3c(c(OC)cc4ccc(=O)oc34)O[C@H]2CO)cc(OC)c1OC` the value was above 50 µM; for `COc1c2ccoc2nc2c(O)cccc12` [ROBUSTINE], above 50 µM.
Still for that read-out and setting: for `COc1cc([C@@H]2Oc3cc(/C=C/C=O)ccc3O[C@H]2CO)cc(OC)c1O` the value was above 50 µM; for `COc1c2ccccc2nc2occc12` [DICTAMNINE], above 50 µM; for `O=S(=O)(F)Cc1ccccc1` [PHENYLMETHYLSULFONYLFLUORIDE], 204 µM.
Still for that read-out and setting: the figure for `COc1cc2ccc(=O)oc2c(OC)c1OC` [FRAXIDIN METHYL ETHER] is above 50 µM; for `COc1c2ccoc2nc2c(OC)cccc12` [GAMMA-FAGARINE] it is above 50 µM.
As for `COc1cc([C@@H]2Oc3cc(/C=C/C=O)cc(OC)c3O[C@H]2CO)cc(OC)c1O`, the IC50 was above 50 µM.
With `COc1ccc2c(OC)c3ccoc3nc2c1OC` [SKIMMIANINE], the IC50 is 19.2 µM.
Same read-out and setting: the figure for `COc1c2c(c3ccc(=O)oc3c1/C=C/C(C)(C)OC)OC(C)(C)C=C2` [AVICENNOL METHYL ETHER] is above 50 µM.

A further assay in a line: Antiinflammatory activity in human neutrophils assessed as inhibition of formyl-L-methionyl-L-leucyl-L-phenylalanine/cytochalasin B-induced superoxide anion generation. In kind it is functional, cell-based. Particulars: Neutrophil.
Take `COc1cc([C@@H]2Oc3cc(/C=C/C=O)cc(O)c3O[C@H]2CO)cc(OC)c1OC`: the IC50 was above 50 µM.
For `COc1cc(=O)n(C)c2ccccc12`, the IC50 was above 50 µM.
Consider `COc1cc2ccc(=O)oc2cc1O` [SCOPOLETIN], for which the IC50 is above 50 µM.
Same read-out and setting: the figure for `COc1cc(/C=C/C(=O)OC[C@H]2[C@@H](Cc3cc(OC)c(O)c(OC)c3)CO[C@@H]2c2cc(OC)c(O)c(OC)c2)ccc1O` is 33.6 µM; for `COc1cc(=O)[nH]c2c(OC)cccc12` [EDULITINE] it is 38 µM.
For `COc1cc([C@@H]2Oc3cc(/C=C/C=O)cc(OC)c3O[C@H]2CO)ccc1O`, the IC50 is above 50 µM.
Still for that read-out and setting: the figure for `COc1cc([C@@H]2Oc3c(c(OC)cc4ccc(=O)oc34)O[C@H]2CO)cc(OC)c1O` [CLEOMISCOSIN D] is 13.1 µM; for `CC1(C)C=Cc2cc(/C=C/C=O)ccc2O1` it is above 50 µM.
On to `COc1c2c(cc3ccc(=O)oc13)C=CC(C)(C)O2` [LUVANGETIN], for which the IC50 is above 50 µM.
Same read-out and setting: the figure for `Cn1c2ccccc2c(=O)c2ccoc21` [ISODICTAMNINE] is above 50 µM; for `COc1c2c(c3ccc(=O)oc3c1/C=C/C(C)(C)O)OC(C)(C)C=C2` [AVICENNOL] it is above 50 µM.
Still for that read-out and setting: for `COc1cc([C@@H]2OC[C@@H]3[C@H]2CO[C@H]3c2cc(OC)c(O)c(OC)c2)cc(OC)c1O` the value was 39.9 µM; for `COc1cc(/C=C\C(=O)OC[C@H]2[C@@H](Cc3cc(OC)c(O)c(OC)c3)CO[C@@H]2c2cc(OC)c(O)c(OC)c2)ccc1O`, 28 µM; for `COc1cc2ccc(=O)oc2cc1OC` [SCOPARONE], 42.9 µM.
As for `COc1cc([C@@H]2Oc3c(c(OC)cc4ccc(=O)oc34)O[C@H]2CO)cc(OC)c1OC`, the IC50 is 14.7 µM.
Still for that read-out and setting: the figure for `COc1c2ccoc2nc2c(O)cccc12` [ROBUSTINE] is 18.2 µM; for `COc1cc([C@@H]2Oc3cc(/C=C/C=O)ccc3O[C@H]2CO)cc(OC)c1O` it is 26.9 µM.
Still for that read-out and setting: for `COc1c2ccccc2nc2occc12` [DICTAMNINE] the value was above 50 µM.
Regarding `COc1cc2ccc(=O)oc2c(OC)c1OC` [FRAXIDIN METHYL ETHER], the half-inhibitory concentration (IC50) is 49.5 µM.
The same measure, in the same setting: the figure for `COc1c2ccoc2nc2c(OC)cccc12` [GAMMA-FAGARINE] is 31.3 µM.
Turning to `COc1cc([C@@H]2Oc3cc(/C=C/C=O)cc(OC)c3O[C@H]2CO)cc(OC)c1O`, the IC50 was determined as 48.6 µM.
On the same count and under the same terms, the figure for `c1ccc2c(c1)[I+]c1ccccc1-2` [DIPHENYLENEIODONIUM] is 1.68 µM; for `COc1ccc2c(OC)c3ccoc3nc2c1OC` [SKIMMIANINE] it is 13.2 µM; for `COc1c2c(c3ccc(=O)oc3c1/C=C/C(C)(C)OC)OC(C)(C)C=C2` [AVICENNOL METHYL ETHER] it is 48.4 µM.

The IC50 is the concentration that inhibits the measured activity by half.
